Assay results as given in patent US12194038B2, “Use of flibanserin in preparation of drug for treating androgenic alopecia” (SHANGHAI DIMAIHE BIOTECHNOLOGY CO., LTD., priority 2022, dated 2025).
Several values for one entry are separate records, joined by “and”; a condition that tells them apart may be missing. Equal values may be shown once. Read-outs that look alike come from different tables or passages of the source.

Columns and labels:
Lncap cells [1] = conditions: 48 h
AGA model mice = assay: Hair restoration in testosterone propionate-induced AGA model mice; type: in vivo; conditions: for Effective rate of animal hair restoration (effective rate of drug) / Hair restoration compared with the model group: AGA model mice, intragastric administration for 4 weeks
Method: Animal experiment-related reagents: testosterone propionate, Batch No. T818615. Soybean oil, Batch No. A23GS146219. 80 mg of testosterone propionate was dissolved in 40 mL of soybean oil to prepare a solution at 2 mg/mL. […] Flibanserin, Batch No. W1608745834, 0.32 mg of flibanserin was dissolved in 20 mL of physiological saline to prepare a solution at 1.6×10^−2 mg/mL
The experimental animals are male […] mice, non-inbred closed colony, weighing 18-22 g, aged 5 weeks, certificate number: No. 202207119, provided by the Institute of Comparative Medicine, Yangzhou University. In the laboratory, room temperature is 20° C.-22° C., the relative humidity is 40%-60%, ventilation is provided by a ventilation fan, and the natural light source is provided for 12 h/day. The mice were caged, with 7 mice per cage, and the cages were cleaned every three days.
Before the injection of testosterone propionate for modeling, pre-treatment was first performed, wherein the pre-treatment comprises: fixing the mice, shaving off the hairs on the back of the mice by an electric shaver, and unhairing vellus hairs using an unhairing cream. […] After successful modeling, the intragastric administration was performed for 4 weeks on the basis of the injection of the testosterone propionate solution. After the administration was completed, the effective rate (percentage of hair restoring mice to the total number of mice) of the drug was subjected to statistical analysis, and the ratio of the area of the hair growing part to the area of the unhairing part in mice was subjected to statistical analysis. The mouse hairs were taken from multiple points at different hair restoring parts on the back of the mice for length measurement and statistical analysis. The mice were sacrificed by cervical dislocation, and the back skin was taken, wherein a part of the back skin was frozen at −80° C. for extracting protein and performing a nuclear protein and cytoplasmic protein separation experiment to explore the inhibition of the drug on the nuclear localization of the androgen receptor dimer, and a part of the back skin was fixed with 4% paraformaldehyde (Cat. No.: AF030) for 48 h, and then subjected to tissue section and HE staining. […] Determination criteria: The unhairing area of the back of the mice after unhairing was measured, noted as A, the hair growing area of the back of the mice after the completion of the administration was measured, noted as B, and the mean value of the […] in each group was taken as the effective rate of animal hair restoration.

Lncap cells [2] = assay: Inhibition of proliferation of DHT-stimulated Lncap cells by flibanserin (MTT); type: cell-based, human; conditions: for OD value in administration group-OD value in control group: replicate values
androgen receptor = molecular target: T1, androgen receptor (Mus musculus, UniProt P19091); assay: Nuclear protein and cytoplasmic protein separation experiment in primary hair follicle dermal papilla cells; type: cell-based; conditions: 48 h
T1 construct: Mouse primary hair follicle dermal papilla cells were extracted according to enzymatic digestion and cultured for 10 days; endogenous in cells; host or cells: mouse primary hair follicle dermal papilla cells
T1 sequence (P19091 1-899): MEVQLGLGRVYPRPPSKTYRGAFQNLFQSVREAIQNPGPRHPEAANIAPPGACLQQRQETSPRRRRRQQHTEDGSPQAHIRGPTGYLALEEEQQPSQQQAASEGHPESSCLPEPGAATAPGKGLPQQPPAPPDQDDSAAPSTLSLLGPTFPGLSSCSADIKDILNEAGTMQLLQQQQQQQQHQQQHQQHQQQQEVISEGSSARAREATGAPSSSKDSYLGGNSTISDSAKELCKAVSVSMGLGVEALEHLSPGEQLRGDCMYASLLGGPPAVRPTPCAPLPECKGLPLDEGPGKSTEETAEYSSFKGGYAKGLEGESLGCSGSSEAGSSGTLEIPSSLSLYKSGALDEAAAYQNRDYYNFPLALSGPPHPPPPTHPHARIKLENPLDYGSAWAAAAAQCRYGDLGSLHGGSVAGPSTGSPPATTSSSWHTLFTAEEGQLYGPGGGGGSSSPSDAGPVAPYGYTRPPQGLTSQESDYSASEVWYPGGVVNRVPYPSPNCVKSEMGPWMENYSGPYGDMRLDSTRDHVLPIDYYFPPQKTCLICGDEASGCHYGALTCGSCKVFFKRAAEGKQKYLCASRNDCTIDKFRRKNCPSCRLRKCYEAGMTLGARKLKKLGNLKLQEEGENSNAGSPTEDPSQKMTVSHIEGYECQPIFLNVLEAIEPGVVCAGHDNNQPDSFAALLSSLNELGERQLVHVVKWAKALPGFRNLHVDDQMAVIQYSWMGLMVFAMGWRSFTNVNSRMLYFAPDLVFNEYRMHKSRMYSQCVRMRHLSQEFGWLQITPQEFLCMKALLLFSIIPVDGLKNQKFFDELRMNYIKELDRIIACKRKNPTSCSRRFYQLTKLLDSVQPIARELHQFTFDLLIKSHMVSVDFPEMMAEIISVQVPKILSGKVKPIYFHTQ

[3] = HE staining of tissue sections, compared with the model group
[4] = DHT 10^−8 mol/L + flibanserin 5 and 1 μmol/L (both doses), compared with finasteride group and DHT group

For `C[C@]12CCC(=O)C[C@@H]1CC[C@@H]1[C@@H]2CC[C@]2(C)[C@@H](O)CC[C@@H]12` [DHT, dihydrotestosterone], the Mean proliferation rate (Lncap cells [1]; DHT 10^−5 uM) was −12.91%, the Mean proliferation rate (Lncap cells [1]; DHT 10^−6 uM) was 6.30% and the Mean proliferation rate (Lncap cells [1]; DHT 10^−7 uM) was 7.77%. For the same compound, the Mean proliferation rate (Lncap cells [1]; DHT 10^−8 uM) was 9.47%, the Mean proliferation rate (Lncap cells [1]; DHT 10^−9 uM) was 10.01% and the Mean proliferation rate (Lncap cells [1]; DHT 10^−10 uM) was 2.79%.

With `CC(C)(C)NC(=O)[C@H]1CC[C@H]2[C@@H]3CC[C@H]4NC(=O)C=C[C@]4(C)[C@H]3CC[C@]12C` [Finasteride, finasteride] the “Effective rate of animal hair restoration (effective rate of drug)” value (“Effective rate” below) (AGA model mice) was 71.4%, the “Effective rate” value (AGA model mice; listed as finasteride) was 71.4% and the “Hair restoration compared with the model group” value (AGA model mice; listed as finasteride) was “restored to varying degrees”.

In the case of `O=c1[nH]c2ccccc2n1CCN1CCN(c2cccc(C(F)(F)F)c2)CC1` [Flibanserin, flibanserin], the inhibition at 0.001 µM (Lncap cells [2]; Homo sapiens, LNCaP, flibanserin 0.001 uM, 48 h, after modeling with 10^−9 M DHT, read-out: Mean proliferation inhibition rate) is reported as 11.9%, the inhibition at 0.1 µM (Lncap cells [2]; Homo sapiens, LNCaP, flibanserin 0.1 uM, 48 h, after modeling with 10^−9 M DHT, read-out: Mean proliferation inhibition rate) is reported as 11% and the inhibition at 1 µM (Lncap cells [2]; Homo sapiens, LNCaP, flibanserin 1 uM, 48 h, after modeling with 10^−9 M DHT, read-out: Mean proliferation inhibition rate) is reported as 20.1%. For the same compound, the inhibition at 10 µM (Lncap cells [2]; Homo sapiens, LNCaP, flibanserin 10 uM, 48 h, after modeling with 10^−9 M DHT, read-out: Mean proliferation inhibition rate) was 45.9%, the inhibition at 50 µM (Lncap cells [2]; Homo sapiens, LNCaP, flibanserin 50 uM, 48 h, after modeling with 10^−9 M DHT, read-out: Mean proliferation inhibition rate) was 82.4% and the inhibition at 100 µM (Lncap cells [2]; Homo sapiens, LNCaP, flibanserin 100 uM, 48 h, after modeling with 10^−9 M DHT, read-out: Mean proliferation inhibition rate) was 85.5%. For the same compound, the “OD value in administration group-OD value in control group” value (“OD value” for short) (Lncap cells [2]; flibanserin 0.001 uM, 48 h) was 0.72 and 0.981 and 0.8943 and 0.8405 and 0.9681, the “OD value” value (Lncap cells [2]; flibanserin 0.1 uM, 48 h) was 0.7821 and 0.9153 and 0.9204 and 0.8399 and 0.9938 and the “OD value” value (Lncap cells [2]; flibanserin 1 uM, 48 h) was 0.7947 and 0.8164 and 0.702 and 0.8345 and 0.8472. The “OD value” value (Lncap cells [2]; flibanserin 10 uM, 48 h) was 0.3592 and 0.6076 and 0.5562 and 0.5302 and 0.6538, the “OD value” value (Lncap cells [2]; flibanserin 50 uM, 48 h) was 0.1738 and 0.1424 and 0.1556 and 0.1886 and 0.2218 and the “OD value” value (Lncap cells [2]; flibanserin 100 uM, 48 h) was 0.1345 and 0.1157 and 0.119 and 0.1751 and 0.1812. The “Inhibition of the proliferation of Lncap cells” value (Lncap cells [2]; flibanserin at a low concentration, MTT) was “can inhibit”, the “Effective rate” value (AGA model mice) was 85.7% and the “Effective rate” value (AGA model mice; listed as flibanserin) was 85.7%. For the same compound, the “Hair restoration compared with the model group” value (AGA model mice; listed as flibanserin) was “restored to varying degrees”, the “Diameter of hair follicles” value (AGA model mice; [3]) was “increase” and the “Number of hair follicles per unit area” value (AGA model mice; [3]) was “increase”. The “Ratio of anagen to telogen” value (AGA model mice; [3]) was “increase”, the “Ratio of epidermal thickness to dermal thickness” value (AGA model mice; [3]) was “increase” and the Hair length (AGA model mice; compared with the model group) was “increase”. The “Total level of the androgen receptor” value (androgen receptor; DHT 10^−8 mol/L + finasteride 5 μmol/L or flibanserin 5 and 1 μmol/L, compared with DHT group) was “no significant difference”, the “Level of the androgen receptor in the cytoplasm” value (androgen receptor; [4]) was “increased” and the “Level of the androgen receptor in the nucleus” value (androgen receptor; [4]) was “decreased”.
